The numbers were not newly measured in patent US20150017236A1, “PHARMACEUTICAL COMPOSITIONS OF THYROID HORMONE” (priority 2013, published 2015), which cites them from elsewhere.

For the data set the following is noted: tablet formulation of levothyroxine sodium; storage.

Molecules are shown by their SMILES.

Regarding `N[C@@H](Cc1cc(I)c(Oc2cc(I)c(O)c(I)c2)c(I)c1)C(=O)O` [levothyroxine sodium, sodium (S)-2-amino-3-[4-(4-hydroxy-3,5-diiodphenoxy)-3,5-diiodophenyl]propionate], the decomposition of levothyroxine result is on record as “approximately 1 percent per month”.
